From ChEMBL document CHEMBL3046317, “Synthesis and Herbicidal Activity of Sulfonylureas with Fused Heterocyclic Moiety” (1994) come the findings set out here.

Type in all cases: functional
For experiment [1], the system named is Schoenoplectiella juncoides. Kind of experiment: Herbicidal activity against Schoenoplectiella juncoides assessed as killing at 1 g/ha by pot test.
The test system of experiment [2] is Schoenoplectiella juncoides. Kind of experiment: Herbicidal activity against Schoenoplectiella juncoides assessed as killing at 10 g/ha by pot test.
In experiment [3] the test system is Sagittaria pygmaea. Briefly: Herbicidal activity against Sagittaria pygmaea assessed as killing at 10 g/ha by pot test.
Experiment [4] concerns Cyperus difformis. Kind of experiment: Herbicidal activity against Cyperus difformis assessed as killing at 1 g/ha by pot test.
Experiment [5] concerns Lindernia procumbens. Briefly: Herbicidal activity against Lindernia procumbens assessed as killing at 10 g/ha by pot test.
The test system of experiment [6] is Echinochloa oryzicola. Kind of experiment: Herbicidal activity against Echinochloa oryzicola assessed as killing at 10 g/ha by pot test.
Experiment [7] has as its system Rotala indica. Briefly: Herbicidal activity against Rotala indica assessed as killing at 10 g/ha by pot test.
The subject of experiment [8] is Echinochloa oryzicola. Kind of experiment: Herbicidal activity against Echinochloa oryzicola assessed as killing at 1 g/ha by pot test.
In experiment [9] the test system is Lindernia procumbens. Kind of experiment: Herbicidal activity against Lindernia procumbens assessed as killing at 1 g/ha by pot test.
The test system of experiment [10] is Rotala indica. Briefly: Herbicidal activity against Rotala indica assessed as killing at 1 g/ha by pot test.
In experiment [11] the test system is Cyperus difformis. Briefly: Herbicidal activity against Cyperus difformis assessed as killing at 10 g/ha by pot test.
For experiment [12], the system named is Sagittaria pygmaea. Briefly: Herbicidal activity against Sagittaria pygmaea assessed as killing at 1 g/ha by pot test.

`COc1cc(OC)nc(NC(=O)NS(=O)(=O)c2c(C)nc3cccnn23)n1`: the Activity in [1] was 100%; in experiment [2], 100%; in the experiment on Sagittaria pygmaea [3], 100%; in the experiment with Cyperus difformis [4], 88%; in the experiment on Lindernia procumbens [5], 88%; in the experiment on Echinochloa oryzicola [6], 100%. For the same compound, the Activity with Rotala indica [7] was found to be 88%; with Echinochloa oryzicola [8], 88%; with Lindernia procumbens [9], 88%; in the experiment with Rotala indica [10], 88%; in the experiment on Cyperus difformis [11], 100%; in the experiment with Sagittaria pygmaea [12], 88%.

For `COc1cc(OC)nc(NC(=O)NS(=O)(=O)c2c(C)nc3n(C)ccn23)n1`, the Activity is recorded as 1% in experiment [1]; 76% in experiment [2]; 76% in the experiment on Sagittaria pygmaea [3]; 1% in the experiment with Cyperus difformis [4]; 51% with Lindernia procumbens [5]; 88% with Echinochloa oryzicola [6]. In addition, the Activity in the experiment on Rotala indica [7] turned out to be 88%; in the experiment with Echinochloa oryzicola [8], 1%; in the experiment on Lindernia procumbens [9], 51%; in the experiment with Rotala indica [10], 51%; in the experiment with Cyperus difformis [11], 76%; in the experiment with Sagittaria pygmaea [12], 1%.

Regarding `COc1cc(OC)nc(NC(=O)NS(=O)(=O)c2c(C)nn3cccnc23)n1`, the Activity in [1] is listed as 76%; in experiment [2], 100%; with Sagittaria pygmaea [3], 88%; in the experiment with Cyperus difformis [4], 88%; with Lindernia procumbens [5], 88%; in the experiment on Echinochloa oryzicola [6], 88%. Further, the Activity in the experiment on Rotala indica [7] turned out to be 88%; in the experiment with Echinochloa oryzicola [8] it was 88%; in the experiment with Lindernia procumbens [9], 88%; in the experiment on Rotala indica [10] it was 76%; in the experiment with Cyperus difformis [11], 88%; with Sagittaria pygmaea [12] it was 76%.

Turning to `COc1cc(OC)nc(NC(=O)NS(=O)(=O)c2ncc3ccccn23)n1`, the Activity in experiment [1] worked out at 1%; in experiment [2] it was 51%; in the experiment with Sagittaria pygmaea [3] it was 76%; in the experiment on Cyperus difformis [4], 1%; in the experiment with Lindernia procumbens [5], 51%; in the experiment on Echinochloa oryzicola [6], 1%. The Activity turned out to be 51% in the experiment with Rotala indica [7]; 1% with Echinochloa oryzicola [8]; 1% with Lindernia procumbens [9]; 51% with Rotala indica [10]; 1% in the experiment with Cyperus difformis [11]; 1% in the experiment on Sagittaria pygmaea [12].

With `COc1cc(OC)nc(NC(=O)NS(=O)(=O)c2ncn3ccccc23)n1`, the Activity in experiment [1] was determined as 1%; in experiment [2], 1%; in the experiment on Sagittaria pygmaea [3], 76%; in the experiment with Cyperus difformis [4], 51%; in the experiment on Lindernia procumbens [5] it was 51%; in the experiment on Echinochloa oryzicola [6], 51%. For the same compound, the Activity with Rotala indica [7] came out at 76%; in the experiment on Echinochloa oryzicola [8], 1%; in the experiment on Lindernia procumbens [9] it was 1%; in the experiment with Rotala indica [10] it was 51%; in the experiment with Cyperus difformis [11] it was 76%; in the experiment on Sagittaria pygmaea [12], 1%.

Consider `COc1cc(OC)nc(NC(=O)NS(=O)(=O)c2c(C)cc3ccccn23)n1`, for which the Activity in experiment [1] is 1%; in experiment [2], 51%; in the experiment with Sagittaria pygmaea [3], 76%; with Cyperus difformis [4] it was 1%; in the experiment with Lindernia procumbens [5], 51%; with Echinochloa oryzicola [6], 76%. The Activity with Rotala indica [7] is given as 51%; with Echinochloa oryzicola [8], 1%; with Lindernia procumbens [9], 1%; in the experiment with Rotala indica [10], 1%; in the experiment with Cyperus difformis [11], 76%; in the experiment with Sagittaria pygmaea [12], 51%.

Turning to `COc1cc(OC)nc(NC(=O)NS(=O)(=O)c2c(C)nc3scnn23)n1`, the Activity in [1] was 51%; in experiment [2], 88%; in the experiment with Sagittaria pygmaea [3], 88%; in the experiment with Cyperus difformis [4], 1%; in the experiment on Lindernia procumbens [5], 88%; in the experiment on Echinochloa oryzicola [6], 88%. Also, the Activity in the experiment with Rotala indica [7] was 88%; with Echinochloa oryzicola [8], 76%; with Lindernia procumbens [9], 76%; in the experiment with Rotala indica [10] it was 76%; in the experiment with Cyperus difformis [11], 88%; in the experiment on Sagittaria pygmaea [12], 1%.

Consider `COc1cc(OC)nc(NC(=O)NS(=O)(=O)c2c(C)nn3ccccc23)n1`, for which the Activity in [1] stood at 76%; in [2], 100%; in the experiment on Sagittaria pygmaea [3] it was 88%; with Cyperus difformis [4] it was 88%; in the experiment with Lindernia procumbens [5], 88%; in the experiment with Echinochloa oryzicola [6], 88%. Also, the Activity in the experiment on Rotala indica [7] is listed as 88%; in the experiment on Echinochloa oryzicola [8], 88%; with Lindernia procumbens [9] it was 76%; in the experiment on Rotala indica [10] it was 88%; in the experiment on Cyperus difformis [11], 88%; in the experiment with Sagittaria pygmaea [12], 88%.

In the case of `COc1cc(OC)nc(NC(=O)NS(=O)(=O)c2nc(C)n3ccccc23)n1`, the Activity amounted to 1% in experiment [1]; 1% in experiment [2]; 51% in the experiment with Sagittaria pygmaea [3]; 1% in the experiment on Cyperus difformis [4]; 1% with Lindernia procumbens [5]; 1% in the experiment with Echinochloa oryzicola [6]. Moreover, the Activity in the experiment with Rotala indica [7] came to 76%; with Echinochloa oryzicola [8], 1%; with Lindernia procumbens [9] it was 1%; in the experiment with Rotala indica [10], 51%; in the experiment on Cyperus difformis [11] it was 76%; with Sagittaria pygmaea [12], 51%.

With `COc1cc(OC)nc(NC(=O)NS(=O)(=O)c2c(C)cn3ccccc23)n1`, the Activity was 1% in experiment [1]; 1% in [2]; 76% with Sagittaria pygmaea [3]; 1% with Cyperus difformis [4]; 1% in the experiment with Lindernia procumbens [5]; 1% with Echinochloa oryzicola [6]. The Activity was found to be 1% in the experiment on Rotala indica [7]; 1% in the experiment on Echinochloa oryzicola [8]; 1% in the experiment with Lindernia procumbens [9]; 1% in the experiment on Rotala indica [10]; 51% in the experiment on Cyperus difformis [11]; 51% with Sagittaria pygmaea [12].
